According to patent US20100240040A1, “METHOD FOR SCREENING FOR SELECTIVE MODULATOR OF THE NF-KB PATHWAY ACTIVATION” (INSTITUT PASTEUR, priority 2007, published 2010):
Where a SMILES comes first, the peptide text is derived from it. Where no end group is shown, it is not given here. The star is where a group is joined. BODIPYFLEthylmaleimide = Cc1cc(C)n2c1C=C1C=CC(CCC(=O)NCCN3C(=O)CC(*)C3=O)=[N+]1[B-]2(F)F; Bodipy = not defined here

Key:
spCC2-LZ (MOD of NEMO) = biological target: T1, spCC2-LZ (MOD of NEMO) (Mus musculus, UniProt O88522); assay: Fluorescence anisotropy binding of labelled peptide to spCC2-LZ; details: labelled peptide 10 μM, increasing spCC2-LZ; read-out: dissociation constant for spCC2-LZ
T1 construct: spCC2-LZ, synthetic polypeptide subdomain CC2-LZ; made in house; host or cells: chemical synthesis
T1 sequence (O88522 253-336): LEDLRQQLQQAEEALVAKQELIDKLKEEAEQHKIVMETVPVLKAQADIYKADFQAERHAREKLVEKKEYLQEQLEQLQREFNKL
Protocol: Anisotropy measurements were performed with a QuantaMaster® fluorometer (PTI), equipped with polarizing filters for excitation and emission, and using a photomultiplier tube in the L-configuration. All experiments were carried out in a microcuvette (60 μl) at 22° C., with excitation and emission wavelengths at 495 and 513 nm. The band pass of the excitation and emission wavelengths was 2 and 4 nm, respectively. Steady-state fluorescence anisotropy, expressed as millianisotropy units was measured as described Agou et al., 2004a. All measurements were carried out in a 20 mM isoionic buffer pH 8 (10 mM acetic acide, 10 mM MES, 20 mM Tris), containing 20 mM KCl. Each data point is the result of 20 recording taken over a 2-min period. To analyse whether DR NLM binds the MOD of NEMO, fluorescent labelled BA-DR NLM (10 μM) was incubated with an increasing concentrations of spCC2-LZ and the complex formation was monitored by fluorescence polarization (P) and results are expressed as anisotropy (A) according to the formula A=2P/(3-P). The concentration of spCC2-LZ was determining by amino acid analysis (Vinolo et al; 2006). Data points were fitted to the binding isotherm equation which gives a dissociation constant of 17 μM.

[1] = biological target: T2, NEMO oligomers (Flag-NEMO/GFP-NEMO) (Mus musculus, UniProt O88522, A144V/E216G/P360T/S248N); assay: Inhibition of NEMO oligomerization in cells (GFP-NEMO/Flag-NEMO co-transfected 293T cells); format: cell-based, murine; details: 20 μM peptide
T2 construct: expressed in transfected cells; host or cells: 293T (human embryonal kidney), transient co-transfection
T2 sequence (O88522 with tags, fused parts or gaps A144V/E216G/S248N/P360T limits assumed): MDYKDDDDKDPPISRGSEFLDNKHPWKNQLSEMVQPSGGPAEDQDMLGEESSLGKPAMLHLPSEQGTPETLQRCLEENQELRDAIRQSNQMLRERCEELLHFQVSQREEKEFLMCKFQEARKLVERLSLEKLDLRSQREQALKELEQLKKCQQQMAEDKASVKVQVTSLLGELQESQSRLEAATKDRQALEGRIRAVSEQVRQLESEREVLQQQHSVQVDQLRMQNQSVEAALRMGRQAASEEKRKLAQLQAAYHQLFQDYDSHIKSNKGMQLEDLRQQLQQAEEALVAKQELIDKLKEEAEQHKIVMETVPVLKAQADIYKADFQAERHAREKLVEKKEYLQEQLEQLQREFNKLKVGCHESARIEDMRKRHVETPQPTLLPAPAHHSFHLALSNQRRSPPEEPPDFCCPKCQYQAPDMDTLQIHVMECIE
Protocol: 293T cells were transiently co-transfected by calcium-phosphate-DNA precipitation method with 2 μg of a plasmid pcDNA3 (Invitrogen) containing the sequence of FLAG-NEMO (pcDNA3-Flag-NEMO of sequence SEQ ID NO: 24) and 0.7 μg of a plasmid pcDNA3 containing the sequence of GFP-NEMO (pcDNA3-GFP-NEMO of sequence SEQ ID NO: 26). Empty vector is added up to a total amount of DNA of 4 μg per 6 cm dish. 24 h after transfection, cells were resuspended and incubated with or without 20 μM of peptides (A-NLM or A-DR NLM) for 7 h at 37° C. Cells were resuspended and washed twice with PBS to remove excess peptides and lysed in 150 μl of lysis buffer containing a protease inhibitor mixture as indicated above (Example 1.D). Lysates were clarified at 15 000×g at 4° C. for 20 min. The amount of proteins in the clarified lysate is determined by the Bradford method with the kit DC Biorad. 100 μg of total proteins were diluted in 200 μl of interaction buffer (50 mM TrisHCl pH 7.5, 1% triton X100, 1 mM DTE, 300 mM NaCl) and incubated 1 h at 4° C. with 40 μl of agarose anti-Flag M2 beads (Sigma). The oligomers Flag-NEMO/GFP-NEMO were pulled down with the anti-Flag M2 beads and washed twice with the interaction buffer. The fluorescence of GFP-NEMO were directly read on the beads with a fluorescence microplate reader SAFAS and the clarified lysates were analysed by Western blotting using anti-Flag, anti-GFP and anti-NDPK-B antibodies (Kraeft et al., 1996; Exp Cell Res; 227:63-69) to normalize the results.
In order to better analyze the molecular mechanism of the inhibition of the NF-κB pathway by DR NLM peptide, the Inventors have developed an assay to probe NEMO oligomerization in cells as described in Example 1.I (see FIG. 5 for an overview of the cell-based assay). For this, two plasmids were used, expressing respectively GFP-NEMO and Flag-NEMO fusion proteins. The plasmids were cotransfected in human 293T cells to overexpress exogenous GFP-NEMO and Flag-NEMO fusion proteins and enforce NEMO oligomerization. The cells were then submitted to detergent lysis and Flag-NEMO proteins were immunopurified using anti-Flag agarose beads and Flag peptide as described in Example 1.I. The fluorescence associated with beads that results from an association of Flag-NEMO with GFP-NEMO subunits within hetero-oligomers allow an estimate of the amount of oligomers present in the cellular extracts.

[2] = biological target: T3, Lys63-linked polyubiquitin chains (Homo sapiens, UniProt P0CG47); assay: In vitro binding assay by fluorescence polarization to polyubiquitin chains; details: tag-free peptide
T3 construct: the Lys63-linked polyubiquitin chains; purchased Boston Biochem

[3] = biological target: T4, CC2-LZ interaction with cellular polyubiquitinylated proteins (Mus musculus, UniProt O88522); assay: Pull-down of polyubiquitinylated proteins from JM4.5.2 extracts with biotinylated CC2-LZ, anti-ubiquitin Western blot; format: biochemical; details: 20 μM peptide, extracts of TNF-α stimulated JM4.5.2 cells
T4 construct: made in house; host or cells: chemical synthesis (bait); crude extract of JM4.5.2 cells with or without TNFα (partners)
T4 sequence (O88522 253-336): as the sequence (O88522 253-336) above
Protocol: 24·10^7 JM4.5.2 cells were stimulated or not with 10 ng/ml of TNFα for 10 minutes at 37° C., washed twice with cold PBS and lysed in 900 μl of lysis buffer containing a protease inhibitor mixture as indicated in Example 1.D. Lysates were clarified at 15 000×g at 4° C. for 30 min. 150 μl of proteins were incubated 2 h at 4° C. with 150 μl of streptavidin magnetic beads (MagPrep®, Novagen) pre-incubated 1 h at 4° C. with 10 μg of biotynilated-CC2-LZ and with or without 20 μM of peptides (BA-NLM or BA-DR NLM). Beads were washed 4 times in buffer A (10 mM Hepes pH 7.5, 150 mM NaCl, 8 mM MgCl2, 10% glycerol, 0.1 mM DDM and 1 mM DTE) and resuspended in 30 μl of laemmli buffer containing 6 M Urea. Samples were analysed by Western blotting using anti-ubiquitin antibodies (Sigma) as well as anti-NDPK-B antibodies for loading controls.
Thus, the Inventors examined whether DR NLM impedes the interaction between NEMO and the K63 polyubiquitin chains. To this end, they developed a pull down assay which uses the a peptide comprising the CC2 and the LZ domains of NEMO as a bait to pull down the polyubiquitinylated proteins as described in Example 1.J and depicted in FIG. 7A. […] After extensive washing of beads, all mono and polyubiquitinylated proteins bound to CC2-LZ were analysed by Western blot using anti-ubiquitin antibody (Sigma).

NF-κB pathway = details: cited from earlier work; for IC50 of inhibition of NF-κB activation: reported in WO2005/027959, Agou et al., 2004b
[4] = Circular dichroism and gel filtration, self-association of peptides; format: physicochemical; details: peptide concentration up to 100 μM; data not shown
Protocol: Far-UV circular dichroism (CD) measurements were performed with an Aviv 215 spectropolarimeter with samples diluted in 10 mM NaPO4 at pH 7.
Then, unlike the LZ peptide, DR NLM peptide as well as NLM peptide are unable to self-associate. Self association of LZ peptide is described by Agou et al., 2004b.

CC[C@H](C)[C@H](NC(=O)[C@H](CC(=O)O)NC(=O)[C@H](C)NC(=O)[C@H](CCC(N)=O)NC(=O)[C@H](C)NC(=O)[C@H](CCCCN)NC(=O)[C@H](CC(C)C)NC(=O)[C@H](CCCCN)NC(=O)[C@H](CCCCN)NC(=O)[C@H](Cc1c[nH]c2ccccc12)NC(=O)[C@H](CCCCN)NC(=O)[C@H](CCSC)NC(=O)[C@H](CCCNC(=N)N)NC(=O)[C@H](CCCNC(=N)N)NC(=O)[C@H](CC(N)=O)NC(=O)[C@H](CCC(N)=O)NC(=O)[C@H](Cc1ccccc1)NC(=O)[C@H](Cc1c[nH]c2ccccc12)NC(=O)[C@@H](NC(=O)[C@H](CCCCN)NC(=O)[C@@H](NC(=O)[C@H](CCC(N)=O)NC(=O)[C@H](CCCNC(=N)N)NC(=O)[C@H](CSC1CC(=O)N(CCNC(=O)CCC2=[N+]3C(=Cc4c(C)cc(C)n4[B-]3(F)F)C=C2)C1=O)NC(C)=O)[C@@H](C)CC)[C@@H](C)CC)C(=O)N[C@@H](Cc1ccc(O)cc1)C(=O)N[C@@H](CCCCN)C(=O)N[C@@H](C)C(=O)N[C@@H](CCCNC(=N)N)C(=O)N[C@@H](Cc1ccccc1)C(=O)N[C@@H](CCC(N)=O)C(=O)N[C@@H](C)C(=O)N[C@@H](CCC(=O)O)C(=O)N[C@@H](CCCNC(=N)N)C(=O)N[C@@H](Cc1c[nH]cn1)C(=O)N[C@@H](C)C(=O)N[C@@H](CCCNC(=N)N)C(=O)N[C@@H](CCC(=O)O)C(=O)N[C@@H](CCCCN)C(N)=O (stereo partly shown) [BA-DR NLM] (Ac-C(BODIPYFLEthylmaleimide)RQIKIWFQNRRMKWKKLKAQADIYKARFQAERHAREK-NH2; N-terminus and C-terminus assumed)
Kd (spCC2-LZ (MOD of NEMO)): 17 µM
amount of NEMO oligomers (fluorescent NEMO subunit recovered) [1]: same amount of NEMO oligomers in the absence or in the presence

CC[C@H](C)[C@H](NC(=O)[C@H](CC(=O)O)NC(=O)[C@H](C)NC(=O)[C@H](CCC(N)=O)NC(=O)[C@H](C)NC(=O)[C@H](CCCCN)NC(=O)[C@H](CC(C)C)NC(=O)[C@H](CCCNC(=N)N)NC(=O)[C@H](CCCNC(=N)N)NC(=O)[C@H](CCCNC(=N)N)NC(=O)[C@H](CCCNC(=N)N)NC(=O)[C@H](CCCNC(=N)N)NC(=O)[C@H](CCCNC(=N)N)NC(=O)[C@H](CCCNC(=N)N)NC(=O)[C@H](CSC1CC(=O)N(CCNC(=O)CCC2=[N+]3C(=Cc4c(C)cc(C)n4[B-]3(F)F)C=C2)C1=O)NC(C)=O)C(=O)N[C@@H](Cc1ccc(O)cc1)C(=O)N[C@@H](CCCCN)C(=O)N[C@@H](C)C(=O)N[C@@H](CCCNC(=N)N)C(=O)N[C@@H](Cc1ccccc1)C(=O)N[C@@H](CCC(N)=O)C(=O)N[C@@H](C)C(=O)N[C@@H](CCC(=O)O)C(=O)N[C@@H](CCCNC(=N)N)C(=O)N[C@@H](Cc1c[nH]cn1)C(=O)N[C@@H](C)C(=O)N[C@@H](CCCNC(=N)N)C(=O)N[C@@H](CCC(=O)O)C(=O)N[C@@H](CCCCN)C(N)=O (stereo partly shown) [BR7-DR NLM] (Ac-C(BODIPYFLEthylmaleimide)RRRRRRRLKAQADIYKARFQAERHAREK-NH2; N-terminus and C-terminus assumed)
Kd (spCC2-LZ (MOD of NEMO)): 21 µM

CC[C@H](C)[C@H](NC(=O)[C@H](CC(=O)O)NC(=O)[C@H](C)NC(=O)[C@H](CCC(N)=O)NC(=O)[C@H](C)NC(=O)[C@H](CCCCN)NC(=O)[C@H](CC(C)C)NC(C)=O)C(=O)N[C@@H](Cc1ccc(O)cc1)C(=O)N[C@@H](CCCCN)C(=O)N[C@@H](C)C(=O)N[C@@H](CC(=O)O)C(=O)N[C@@H](Cc1ccccc1)C(=O)N[C@@H](CCC(N)=O)C(=O)N[C@@H](C)C(=O)N[C@@H](CCC(=O)O)C(=O)N[C@@H](CCCNC(=N)N)C(=O)N[C@@H](Cc1c[nH]cn1)C(=O)N[C@@H](C)C(=O)N[C@@H](CCCNC(=N)N)C(=O)N[C@@H](CCC(=O)O)C(=O)N[C@@H](CCCCN)C(N)=O [NLM] (Ac-LKAQADIYKADFQAERHAREK-NH2; N-terminus and C-terminus assumed)
cooperativity index (Hill coefficient) n [2]: 8
Kd ([2]; read-out: dissociation constant for Lys63-linked polyubiquitin chains): 180 µM
inhibition of CC2-LZ interaction with polyubiquitinylated proteins [3]: no inhibition was observed
inhibition of NF-κB activation (NF-κB pathway; reported in WO 2005/027959): inhibit NF-κB activation
oligomeric state / self-association [4]: behave as monomer

BA-LZ L322P/L329P: BA-LZ bearing a double mutation within the coiled-coil interface, SEQ ID NO: 22 (C(Bodipy)RQIKIWFQNRRMKWKKLKAQADIYKADFQAERHAREKLVEKKEYPQEQLEQPQREFNKL; reading uncertain)
amount of NEMO oligomers (fluorescent NEMO subunit recovered) [1]: no dissociation of NEMO oligomers was observed

BA-LZ: Bodipy-antennapedia tagged LZ peptide, SEQ ID NO: 4 (human 5) (C(Bodipy)RQIKIWFQNRRMKWKKLKAQADIYKADFQAERHAREKLVEKKEYLQEQLEQLQREFNKL; reading uncertain)
amount of NEMO oligomers (fluorescent NEMO subunit recovered) [1]: strong decrease in the amount of fluorescent NEMO subunit

BA-NLM: NLM fused at N-terminus with antennapedia and conjugated with bodipy (C(Bodipy)RQIKIWFQNRRMKWKKLKAQADIYKADFQAERHAREK; reading uncertain)
amount of NEMO oligomers (fluorescent NEMO subunit recovered) [1]: same amount of NEMO oligomers in the absence or in the presence

LKAQADIYKADFQAERHAREKLVEKKEYLQEQLEQLQREFNKL [spLZ]
IC50 of inhibition of NF-κB activation (NF-κB pathway): in the μM range

SKGMQLEDLRQQLQQAEEALVAKQELIDKLKEEAEQHKIV [spCC2]
IC50 of inhibition of NF-κB activation (NF-κB pathway): in the μM range
